This note sets out measurements from patent publication US4788202A, “Sulphonamide derivatives as α2 -adrenoceptor antagonists” (John Wyeth & Brother Limited, priority 1985, dated 1988).

One assay addresses T1, α2 -adrenoceptor (Rattus norvegicus, UniProt P22909).
T1 construct: rat field stimulated vas deferens preparation; from tissue; host or cells: rat vas deferens, field stimulated
T1 sequence (P22909 1-465): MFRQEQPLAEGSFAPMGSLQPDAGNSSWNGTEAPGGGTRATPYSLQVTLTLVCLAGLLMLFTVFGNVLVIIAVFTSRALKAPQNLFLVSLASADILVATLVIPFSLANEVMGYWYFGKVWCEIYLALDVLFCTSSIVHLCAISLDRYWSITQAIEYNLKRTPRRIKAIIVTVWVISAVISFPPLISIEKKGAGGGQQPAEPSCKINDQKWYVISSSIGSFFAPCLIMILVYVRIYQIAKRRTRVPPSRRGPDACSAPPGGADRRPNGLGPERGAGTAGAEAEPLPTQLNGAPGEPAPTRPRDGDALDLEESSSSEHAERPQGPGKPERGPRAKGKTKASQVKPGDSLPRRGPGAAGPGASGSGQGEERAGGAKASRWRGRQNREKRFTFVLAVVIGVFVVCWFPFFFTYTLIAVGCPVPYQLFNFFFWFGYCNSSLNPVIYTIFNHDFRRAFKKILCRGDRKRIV
Put plainly: α2-adrenoceptor antagonistic activity on the rat field stimulated vas deferens preparation (modified method of Drew). The source says: (§1) The compounds of the invention may be tested for α2 -adrenoceptor antagonistic activity on the rat field stimulated vas deferens preparation using a modification of the method of Drew, Eur. J. Pharmac., 1977,42, 123-130 as described in our GB patent No. 2136804A Specification and for the α1 -antagonist activity by the method based on that of Gillespie Br. J. Pharmac 1972, 45 404-416, as also described in GB patent specification No. 2136804A.

Another assay has as its target T2, α1 -adrenoceptor (Rattus norvegicus, UniProt P43140).
T2 construct: method based on that of Gillespie Br. J. Pharmac 1972, 45 404-416; from tissue
T2 sequence (P43140 1-466): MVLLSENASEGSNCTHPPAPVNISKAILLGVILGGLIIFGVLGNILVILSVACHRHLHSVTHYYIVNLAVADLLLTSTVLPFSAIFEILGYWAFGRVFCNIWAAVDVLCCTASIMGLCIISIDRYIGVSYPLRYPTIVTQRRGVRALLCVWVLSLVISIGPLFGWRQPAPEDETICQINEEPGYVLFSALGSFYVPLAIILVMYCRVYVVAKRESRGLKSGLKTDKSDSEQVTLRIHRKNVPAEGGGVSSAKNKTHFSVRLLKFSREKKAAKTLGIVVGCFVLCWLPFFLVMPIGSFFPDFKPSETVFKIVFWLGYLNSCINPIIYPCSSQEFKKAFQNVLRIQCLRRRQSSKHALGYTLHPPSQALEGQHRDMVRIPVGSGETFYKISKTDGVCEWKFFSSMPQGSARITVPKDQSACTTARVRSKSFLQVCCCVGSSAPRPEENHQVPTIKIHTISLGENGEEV
Put plainly: α1-adrenoceptor antagonist activity by a method based on that of Gillespie. As to conditions: as described in GB 2136804A, read-out: pA2 for α1 -adrenoceptor antagonistic activity (converted).
From the text: as §1

For `CS(=O)(=O)NCCN([C@@H]1CCN2CCc3c(oc4ccccc34)[C@@H]2C1)S(C)(=O)=O` (relative stereo) [Example 2, N-[(2β,12bα)-1,3,4,6,7,12b-Hexahydro-2H-benzo[b]furo [2,3-a]quinolizin-2-yl]-N-(2-methanesulphonamidoethyl) methanesulphonamide], the Kb at α2 -adrenoceptor (rat field stimulated vas deferens preparation, read-out: pA2 for α2 -adrenoceptor antagonist activity (converted)) is 8.51 nM; on α1 -adrenoceptor it was 275 nM. For the same compound, the “α2 /α1 selectivity [antilog of (α2 pA2 - α1 pA1)]” value on α2 -adrenoceptor (ratio from α2 and α1 pA2 values) is listed as 32.
